Source: US10072009B2, “N-substituted beta-carbolinium compounds as potent P-glycoprotein inducers” (Council of Scientific and Industrial Research, priority 2014, dated 2018)
Read-outs that look alike come from different tables or passages of the source.

Columns and labels:
[1] = system: P-glycoprotein; assay: P-glycoprotein-induction assay (rhodamine123 cell exclusion method) in LS-180 cells; details: for % Rh123 accumulation in LS-180 cells after 48 h: control = 100; for EC50: read-out: Pgp induction EC50 value, LS180 cells treated 48 h, Rh123 fluorescence vs concentration
Method: P-glycoprotein-induction assay. All synthesized compounds were screened for their ability to induce P-glycoprotein by using rhodamine123 (Rh123) cell exclusion method. In this method, the P-glycoprotein function was evaluated in terms of rhodamine 123 (Rh123) accumulation and efflux. Briefly, the protocol used is as follows: Colorectal LS180 cells Colorectal LS-180 cells [obtained from ECACC (European Collection of Cell Cultures) catalogue number: 87021202; passage number 52] were seeded at a density of 2×10^4 per well of 96 well plate and were allowed to grow for next 24 h. Cells were further incubated with the test compounds, and were diluted to a final concentration of 100 nM and rifampicin (standard) to a final concentration of 10 μM in complete media for 48 h. The final concentration of DMSO was kept at 0.1%. Drugs were removed and cells were incubated with HANKS buffer for 40 minutes before further incubation with HANKS buffer (containing 10 μM of Rh123 as a P-glycoprotein substrate) for 90 minutes. At the end of Rh123 treatment cells were washed four times with cold PBS followed by cell lysis for 1 h by using 200 μl of lysis buffer (0.1% Triton X-100 and 0.2 N NaOH). A total of 100 μl of lysate was used for reading fluorescence of Rh123 at 485 nm/529 nm Samples were normalized by dividing fluorescence of each sample with total protein present in the lysate. The Pgp-induction activity was measured in terms of the % intracellular accumulation of rhodamine 123/total protein inside LS180 cells. The decrease in the % intracellular accumulation (compared to control) of Rh123 indicates induction of P-glycoprotein as shown in Table 1. Rifampicin (10 μM) was used as a reference P-glycoprotein inducer. Statistical comparisons were made between control vs compounds by using Bonferroni test. The p value <0.5 was considered to be significant.
The decrease in % intracellular accumulation (compared to control) of Rh123 indicates induction of Pgp. Rifampicin (10 μM) was used as a reference Pgp inducer.
EC50 determination in p-glycoprotein-induction assay. […] For EC50 determination, different concentrations of compound were used to treat LS180 cells for 48 h. EC50 was determined by plotting fluoroscence of Rh123 against concentration of compound.

[2] = target: acetylcholinesterase (AChE); details: read-out: AChE inhibition IC50; cited from earlier work
[3] = Thermodynamic equilibrium solubility; assay type: physicochemical; details: for solubility: 25 °C, thermodynamic from solid
Method: Determination of thermodynamic equilibrium solubility. The compounds were first dissolved in methanol to prepare stock solutions (100 and 1000 μg/mL) Different concentrations of stock solutions were pipetted into the 96-well plates and the solvent was evaporated to ensure that solid drug was present in the beginning of the experiment. […] The plates were kept overnight for equilibration of drug in medium. Later, the plates were centrifuged at 3000 rpm for 15 min (Jouan centrifuge BR4i). Supernatant (50 μl) was pipetted into UV 96-well plates (Corning® 96 Well Clear Flat Bottom UV-Transparent Microplate) for analyses with plate reader (SpectraMax Plus384) at λmax of 350 nm. The analyses were performed in triplicate for each compound. The solubility curve of concentration (μg/mL) vs absorbance was plotted to find out saturation point and the corresponding concentration was noted. The solubility of fascaplysin (1) and compounds 6 and 11 was determined.

[4] = system: mouse leukemia cells L-1210; details: read-out: ED50, suppression of proliferation of L-1210 cells; cited from earlier work
[5] = compounds at 5 μM (table footnote), decrease indicates Pgp induction

6-chloro-fascaplysin [Compound 5]
% Rh123 accumulation in LS-180 cells after 48 h [1, 5]: 59.2 ± 6.7 %

O=C1c2ccccc2-[n+]2ccc3c([nH]c4ccccc43)c21.[Cl-] [Compound 1, Fascaplysin]
IC50 [2]: 1490 nM | EC50 [1]: 2.8 nM | solubility ([3]; aqueous buffer, phosphate buffer saline, read-out: Solubility in PBS): > 1500 µg/mL | solubility ([3]; simulated gastric fluid, simulated gastric fluid, read-out: Solubility in SGF): > 1500 µg/mL | solubility ([3]; simulated intestinal fluid, read-out: Solubility in SIF): > 1500 µg/mL | solubility ([3]; water, water, 25±1° C., thermodynamic equilibrium, read-out: Solubility in Water): > 800 µg/mL | Solubility in Water ([3]; water, 25±1° C., thermodynamic equilibrium): >1500 µg/mL | EC50 [4]: 200 nM

O=C1c2ccc(Cl)cc2-[n+]2ccc3c([nH]c4ccccc43)c21 [Compound 2, 4-chloro-fascaplysin]
% Rh123 accumulation in LS-180 cells after 48 h [1, 5]: 57.1 ± 9.2 %

O=C1c2cc(F)c(Cl)cc2-[n+]2ccc3c([nH]c4ccccc43)c21 [Compound 3, 4-chloro-5-fluoro-fascaplysin]
% Rh123 accumulation in LS-180 cells after 48 h [1, 5]: 55.5 ± 6.9 %

O=C1c2ccc(Cl)c(Cl)c2-[n+]2ccc3c([nH]c4ccccc43)c21 [Compound 4, 3,4-dichloro-fascaplysin]
% Rh123 accumulation in LS-180 cells after 48 h [1, 5]: 57.8 ± 8.3 %

O=C1c2cc(F)c(F)cc2-[n+]2ccc3c([nH]c4ccccc43)c21 [Compound 6, 4,5-difluoro-fascaplysin]
% Rh123 accumulation in LS-180 cells after 48 h [1, 5]: 49.6 ± 1.2 % | EC50 [1]: 2 nM | Solubility in Water [3]: >1500 µg/mL | solubility ([3]; aqueous buffer, Solubility in PBS): 80 µg/mL | solubility ([3]; fassgf or other biorelevant, Solubility in SIF): < 5 µg/mL | solubility ([3]; simulated gastric fluid, Solubility in SGF): 80 µg/mL | solubility ([3]; water, Solubility in Water): > 800 µg/mL

O=C1c2cc(Cl)ccc2-[n+]2ccc3c([nH]c4ccccc43)c21 [Compound 7, 5-chloro-fascaplysin]
% Rh123 accumulation in LS-180 cells after 48 h [1, 5]: 58.7 ± 7.8 %

Cn1c2ccccc2c2cc[n+](C)c(C(=O)c3ccccc3)c21 [Compound 8, 1-benzoyl-9,N-dimethyl beta-carbolinium iodide]
% Rh123 accumulation in LS-180 cells after 48 h [1, 5]: 75.2 ± 9.1 %

Cn1c2ccccc2c2cc[n+](C)c(C(=O)c3ccccc3Cl)c21 [Compound 9, 1-(2-chloro-benzoyl)-9, N,N-dimethyl beta-carbolinium iodide]
% Rh123 accumulation in LS-180 cells after 48 h [1, 5]: 71.4 ± 8.4 %

Cn1c2ccccc2c2cc[n+](C)c(C(=O)c3c[nH]c4ccccc34)c21 [Compound 10, 1-(3-indoloyl)-9,N-dimethyl beta-carbolinium iodide]
% Rh123 accumulation in LS-180 cells after 48 h [1, 5]: 77.6 ± 7.6 %

Cn1c2ccccc2c2cc[n+](C)c(C(=O)c3ccccc3Br)c21 [Compound 11, 1-(2-bromo-benzoyl)-9,N-dimethyl beta-carbolinium iodide]
% Rh123 accumulation in LS-180 cells after 48 h [1, 5]: 70.1 ± 6.7 % | EC50 [1]: 3 nM | Solubility in Water [3]: 800 µg/mL | solubility ([3]; water, Solubility in Water): > 800 µg/mL

Cn1c2ccccc2c2cc[n+](C)c(C(=O)c3ccc(C(F)(F)F)cc3)c21 [Compound 12, 1-(4-trifluoromethyl-benzoyl)-9,N-dimethyl beta-carbolinium iodide]
% Rh123 accumulation in LS-180 cells after 48 h [1, 5]: 78.5 ± 5.8 %

Cn1c2ccccc2c2cc[n+](C)c(C(=O)c3ccccc3F)c21 [Compound 13, 1-(2-fluoro-benzoyl)-9,N-dimethyl beta-carbolinium iodide]
% Rh123 accumulation in LS-180 cells after 48 h [1, 5]: 79.0 ± 6.0 %

CO[C@H]1/C=C/O[C@@]2(C)Oc3c(C)c(O)c4c(O)c(c(/C=N/N5CCN(C)CC5)c(O)c4c3C2=O)NC(=O)/C(C)=C\C=C\[C@H](C)[C@H](O)[C@@H](C)[C@@H](O)[C@@H](C)[C@H](OC(C)=O)[C@@H]1C [Rifampicin, reference compound]
% Rh123 accumulation in LS-180 cells after 48 h ([1]; rifampicin 10 μM, reference Pgp inducer): 67.1 ± 4.6 %
